Assay results published in US20180050012A1, “Method for Inhibiting Growth of Ovarian Cancer Cells” (NEW BELLUS ENTERPRISES CO., LTD., priority 2016, published 2018).

What was measured:
[1] = test system: ES-2 ovarian cancer cell line; assay: Cytotoxicity test (SRB assay, cell viability); type: cell-based, human
Excerpt: (§1) The ovarian cancer cell lines used in this study included: ES-2, OV-2008, and SKOV-3 obtained from American Type Culture Collection (ATCC). ES-2 was a clear cell carcinoma cell line with high resistance to platinum chemotherapies. Compared with other types of cancer, the clear cell carcinoma was found having poor prognosis in previous studies. SKOV-3 and OV-2008 were more benign cell lines compared to ES-2. Cell culture medium was McCoy5A culture medium (GIbco, 16600-082) supplemented with 1% antibiotic (Gibco, 15140) and 10% fetal bovine serum (FBS, Sigma, F7524). The cells were incubated in a standard incubator (Shel Lab, Sheldon Manufacturing, USA) at 37° C., 5% CO2.
(§2) All the tested cells were incubated in a medium containing 10% fetal bovine serum. When the cells grew to about eighty percent full, the old culture medium was drained and the cells were washed with PBS (phosphate buffered saline) buffer solution. Then, 10 ml of serum-free culture medium was added. Different drugs were added depending on experimental purposes. The reaction was carried out in a 37° C. constant temperature incubator.
(§3) The ovarian cancer cell lines ES-2, OV-2008, and SKOV-3 were placed in a 96-well culture plate (2000 cells/per well) and incubated overnight in 100 μl of complete DMEM. 50 μl of complete DMEM equivalent sample containing 4-acetyl-antroquinonol B (0.5-50 μM) was added to the different wells of the culture plate. In addition, only 100 μl of complete DMEM was added to the control group. After 2 days of culture, the number of cells in each well was determined by sulforhodamine B (a protein-binding dye). Briefly, the cells were fixed in 10% trichloroacetic acid and stained with 0.4% sulforhodamine B. After stained for 20 minutes, the cells were washed with 1% acetic acid. Thereafter, the cell-bound sulforhodamine B was dissolved in 10 mM Tris base. The absorbance (optical density) was determined at 562 nm by a microtiter plate reader.

[2] = test system: OV-2008 ovarian cancer cell line; assay: Cytotoxicity test (SRB assay, cell viability); type: cell-based, human; settings: 0.5-50 μM, 2 days, FIG. 1B
Excerpt: as §1, §2, §3

[3] = test system: SKOV-3 ovarian cancer cell line; assay: Cytotoxicity test (SRB assay, cell viability); type: cell-based, human
Excerpt: as §1, §2, §3

LC3BII = assay: Autophagy: immunohistochemical staining and western blot of LC3BII in ES-2 cells; type: cell-based, human
Method: (§4) Western blot is carried out in a standard procedure. The cells were washed twice with PBS and then a cell lysis solution was added. Cell debris was removed by centrifugation to collect protein degradation products. The protein concentrate was quantified by BCA assay kit (Pierce, Thermo Scientific, USA). Each sample was taken an equal amount of protein degradation products to 10% SDS-PAGE electrophoresis then transferred to a PVDF membrane, followed by the addition of anti-autophagy-related genes (Atg-7, Atg-5, and LC3BII) primary antibodies, and an anti-β-actin antibody as a control group. After the target proteins and the primary antibodies reacted overnight, the secondary antibody conjugated to HRP was added. Finally, the signals of the target proteins were determined by a luminescence-based imaging system (UVP, LLC, USA).
Presumably because cisplatin treatment initiated autophagy that enhanced viability. […] After 4-acetyl-antroquinonol B treatment, LC3BII was detected by immunohistochemical staining and western blot, showing that 4-acetyl-antroquinonol B did inhibit the LC3BII expression on autophagosomes (FIG. 2A). Cell autophagy would protect cancer cells from apoptosis caused by chemotherapies. Hydroxychloroquine was a widely used antiparasitic drug. […] Hydroxychloroquine increased the pH inside lysosomes thus made the lysosomes difficult to fuse with mature autophagosomes. The Inhibitory effect on autophagy could also solve the problem of cell autophagy resistance due to chemotherapies in cancer cells.

Atg-7 = assay: Western blot of Atg-7 in treated cells; type: cell-based, human; settings: FIG. 2C
Method: as §4

Atg-5 = assay: Western blot of Atg-5 in treated cells; type: cell-based, human; settings: FIG. 2C
Method: as §4

ES-2 cell line = assay: Clonogenicity analysis; type: cell-based, human; settings: FIG. 2D
Method: In a 6-well plate was seeded 600 cells per well. The culture medium was McCoy5A supplemented with 10% fetal bovine serum.

AKT/mTOR/p70S6K = assay: Western blot of signaling pathway molecules in ES2 cells; type: cell-based, human; settings: treatment for 0, 3, 6, and 12 hours, FIG. 3
Method: as §4
The effect of 4-acetyl-arbutin-B on cell proliferation and autophagy of ovarian cancer cell line ES2 was observed, and the expression of autophagy-associated protein LC3BII and signaling pathway molecules AKT/mTOR/p70S6K were detected by western blot.

[4] = test system: ES-2 ovarian cancer cell line tumors; assay: ES-2 xenograft ovarian cancer animal model, tumor growth; type: in vivo, NOD-SCID mice; settings: for cell growth of ovarian cancer cell line ES-2 (tumor growth status), single agent: administration of either agent alone
Method: In this study, tumors were induced by malignant ovarian cancer cell line ES-2 in NOD-SCID mice to establish malignant ovarian cancer animal models. The efficacy of oral and intraperitoneal administration of 4-acetyl-antroquinonol B for ovarian cancer was evaluated. In the ovarian cancer animal models, the malignant ovarian cancer cell line ES-2 was implanted subcutaneously to simulate the symptoms of malignant ovarian cancer. And the same time, the animals were fed with different concentrations of 4-acetyl-antroquinonol B every day for six weeks. The animals were sacrificed each week in the six weeks, respectively. […] In addition, different doses of 4-acetyl-antroquinonol B were administered orally (5 mg/kg and 10 mg/kg), and 1 dose (3 mg/kg) of cisplatin was injected intravenously each week (three doses total) when the tumor size was about 70-250 mm^3. […] Importantly, as for safety of 4-acetyl-antroquinonol B, the body weight changes of each group of mice were monitored weekly. […] Therefore, 4-acetyl-antroquinonol B was a potential adjuvant therapy agent in the treatment of ovarian cancer.
Immunodeficient mice (NOD/SCID mice, about 4-6 weeks old) were purchased from BioLASCO Taiwan Co., Ltd. The test was initiated after a week of domestication.
The selected tumor cells were ES2 malignant ovarian cancer cells. ES-2 cell line was derived from a ovarian cancer cell line which was highly resistant to chemotherapy drugs (e.g. cisplatin) and had poor prognosis. It was an anchorage-dependent cell line with strong transfer capacity. The culture medium was DMEM containing 10% fetal bovine serum (FBS), 1% non-essential amino acids (NEAA), and 1% antibiotics. The cells were incubated in a incubator at 37° C., 5% CO2 and subcultured once every 3 to 4 days.
The cells were treated with 0.05% trypsin-EDTA for 3 to 5 minutes to be suspended. The serum-containing medium was added to neutralize trypsin. The mixture was then centrifuged at 1000 rpm at 20° C. for 5 min. The supernatant was removed and the cell pellet was gently dispersed. The cells were resuspended in a suitable volume of culture medium. After mixing evenly, a little cell fluid was taken and cells were counted with a cytometer. The cells were diluted to a concentration of 10^7 cells per milliliter, and approximately 0.15 ml was dispensed into a 1.5 ml small centrifuge tube.
A solution of 4-acetyl-antroquinonol B was prepared in DMSO (250 mg/ml, DMSO was used as the solvent). After 4-acetyl-antroquinonol B was completely dissolved, the solution was dispensed as stock solution and stored at 4° C. Sterile normal saline solution was added to the stock to make a 500-fold dilution. The mixture was mixed evenly and then injected intraperitoneally. Cisplatin, a current clinical standard chemotherapy drug, was also an injection with a concentration of 50 mg/ml or 5 mg/ml, and both of which were injected intravenously without further dilution.
The day before tumor cells injection, zoletil 50 (10-fold dilution) and rompun 2% were mixed (1:1), and 0.25 ml of the mixture was injected intraperitoneally to each mouse for anesthesia. The mice were exposed to radiation to suppress their immunity after they were asleep. The irradiation dose was 0.75 Gy.
Mice were anesthetized with 2.5% isoflurane. The hair of injection site was shaved. The injection site was disinfected with 75% alcohol and povidone-iodine before injection. ES2 tumor cells were injected via 29G insulin needle. […]

[5] = design: species or system NOD-SCID mice; settings: mouse, in vivo
Method: In this study, tumors were induced by malignant ovarian cancer cell line ES-2 in NOD-SCID mice to establish malignant ovarian cancer animal models. The efficacy of oral and intraperitoneal administration of 4-acetyl-antroquinonol B for ovarian cancer was evaluated. In the ovarian cancer animal models, the malignant ovarian cancer cell line ES-2 was implanted subcutaneously to simulate the symptoms of malignant ovarian cancer. And the same time, the animals were fed with different concentrations of 4-acetyl-antroquinonol B every day for six weeks. The animals were sacrificed each week in the six weeks, respectively. […] Importantly, as for safety of 4-acetyl-antroquinonol B, the body weight changes of each group of mice were monitored weekly. […]
The ES-2 ovarian cancer cells in logarithmic phase were mixed with serum suspension and 0.1 ml (2×10^6 cells) was inoculated into hind legs of NOD-SCID immunodeficient mice to form tumors. […] Changes in tumor volume and body weight were monitored and recorded every week. […] The longest diameter (a) and the shortest diameter (b) of the tumor on mice were measured. The tumor size=(a*b2)/2, and the tumor growth curve was calculated.

cell autophagy = settings: recent phase II clinical study; cited from earlier work

Compound	growth of ES2 cells ([1]; 20 uM, time-dependent effect, P<0.05)	response to 4-acetyl-antroquinonol B in cell viability test (cytotoxicity) ([1]; ES-2, 0.5-50 μM, 2 days, FIG. 1B)	cell viability compared with hydroxychloroquine ([1]; ES-2 pretreated with 5 μM cisplatin, same concentration)	response to 4-acetyl-antroquinonol B in cell viability test (cytotoxicity) [2]	inhibitory effect on ovarian cancer cell line [3]	cell autophagy (LC3BII; ES-2 cell line)	autophagosome maturation compared with hydroxychloroquine (LC3BII; ES-2 pretreated with 5 μM cisplatin, FIG. 2B)	LC3BII expression on autophagosomes (LC3BII; immunohistochemical staining and western blot, FIG. 2A)	expression of Atg-7 (Atg-7)	expression of downstream Atg-5 (Atg-5)	cell colony formation efficiency (ES-2 cell line)	expressions of signaling pathway key molecules AKT/mTOR/p70S6K (AKT/mTOR/p70S6K)	cell growth of ovarian cancer cell line ES-2 (tumor growth status), single agent [4]	inhibitory effect on tumor growth, administered alone ([4]; oral 5 mg/kg and 10 mg/kg)	tumor severity versus control group ([4]; oral or intraperitoneal injection, daily for six weeks)	combined inhibitory effect on ovarian cancer with cisplatin and FOLFOX ([4]; ovarian cancer animal model)	safety in the living body [5]	autophagy phenomenon after cisplatin treatment (LC3BII; ES-2 cell line)	body weight after sustained decrease from approximately 26 g [5]	inhibition of cell autophagy (cell autophagy)
COC1=C(OC)[C@H](OC(C)=O)[C@H](C/C=C(\C)CC/C=C(\C)C[C@H]2C[C@H](C)C(=O)O2)[C@@H](C)C1=O [4-acetyl-antroquinonol B]	significantly inhibited	most pronounced response	significantly lower than that in cells treated with hydroxychloroquine	responsive	high inhibitory effect	significantly inhibited	inhibited more than in cells treated with hydroxychloroquine	did inhibit	reduced	inhibited	decreased	significantly reduced	effectively inhibited	dose-dependent inhibitory effect	significantly lower	synergistic inhibitory effect	extremely high	–	–	–
N.N.[Cl][Pt][Cl] [cisplatin, reference compound]	–	–	–	–	–	–	–	–	–	–	–	–	effectively inhibited	–	–	–	–	more significant	about 21 g	–
CCN(CCO)CCCC(C)Nc1ccnc2cc(Cl)ccc12 (stereo not drawn) [hydroxychloroquine]	–	–	–	–	–	–	–	–	–	–	–	–	–	–	–	–	–	–	–	could successfully inhibit cell autophagy
